According to patent US20240190855A1 (Relay Therapeutics, Inc., priority 2021, published 2024):
pIC50: −log10 of the molar value.

molecular target: T1, CDK2/Cyclin E complex (Homo sapiens, UniProt P24941); assay: CDK2/Cyclin E fluorescence-based microfluidic mobility shift assay (CDK2 Biochemical Caliper Assay); conditions: read-out: Biochemical CDK2/CyclinE Caliper IC50
T1 construct: purchased Eurofins 14-475
Procedure, shortened: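 Microfluidic mobility-shift readout after EDTA termination measured phosphorylation of fluorescent FL Peptide 18 (1.5 uM final) in a 20 hr room-temperature reaction. Compounds were tested at 11 concentrations (3-fold).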

Row | SMILES | pIC50
1 | Cc1cc(CC(=O)Nc2ncn(C3CCCC3)n2)on1 [Example 61] | 4.00 to 6.00
2 | COCc1cc(C(=O)Nc2cc([C@@H]3CC[C@](C)(CC(=O)NC(C)C)C3)[nH]n2)n(C)n1 (single isomer, unassigned) [Example 420] | 4.00 to 6.00
3 | Cn1nc(COCC(F)(F)F)cc1C(=O)Nc1cc([C@H]2C[C@@H](OC(=O)NC3(C)CC3)CO2)[nH]n1 [Example 771] | ≥ 7.00
4 | CCOC(=O)c1cc2c(Nc3cc([C@@H]4CC[C@H](OC(=O)NC(C)C)C4)[nH]n3)nc(C)cn2n1 (single isomer, unassigned) [Example 463] | ≥ 7.00
5 | CC[C@H](C)NC(=O)O[C@H]1CO[C@@H](c2cc(Nc3nccn4nc(COC)cc34)n[nH]2)C1 [Example 675] | ≥ 7.00
6 | Cc1cc(CC(=O)Nc2cc([C@H]3CC[C@@H](NC(N)=O)C3)[nH]n2)on1 (racemic) [Example 10] | 6.00 to 6.60
7 | Cc1cc2ccccc2c(Nc2cc(C3CCCC3)[nH]n2)n1 [Example 858] | 4.00 to 6.00
8 | COCc1cc(C(=O)Nc2cc([C@@H]3CC[C@H](Oc4nccnc4C(C)C)C3)[nH]n2)n(C)n1 (single isomer, unassigned) [Example 531] | ≥ 7.00
9 | COCc1cc(C(=O)Nc2cc([C@H]3CC[C@@H](Cc4ncc(C)s4)C3)[nH]n2)n(C)n1 (single isomer, unassigned) [Example 554] | 4.00 to 6.00
10 | CCS(=O)(=O)N[C@H]1CC[C@@H](c2cc(NC(=O)Cc3cc(C)no3)n[nH]2)C1 (single isomer, unassigned) [Example 134] | 4.00 to 6.00
11 | COCc1cc(C(=O)Nc2cc([C@@H]3C[C@H](Oc4cnccc4C4CC4)CO3)[nH]n2)n(C)n1 (single isomer, unassigned) [Example 538] | 4.00 to 6.00
12 | COCc1cc2c(Nc3cc([C@H]4C[C@@H](Oc5nncn5C(C)(C)C)CO4)[nH]n3)nccn2n1 [Example 709] | ≥ 7.00
13 | COCc1cc(C(=O)Nc2cc([C@H]3CC[C@@H](Oc4ccc(C(C)C)nn4)C3)[nH]n2)n(C)n1 (single isomer, unassigned) [Example 415] | 6.00 to 6.60
14 | COCc1cc(C(=O)Nc2cc([C@@H]3CC[C@H](c4cccc(C(C)C)n4)C3)[nH]n2)n(C)n1 (single isomer, unassigned) [Example 606] | 4.00 to 6.00
15 | Cc1ncccc1OC[C@H]1C[C@H](c2cc(Nc3nccn4nccc34)n[nH]2)C1 [Example 514] | 4.00 to 6.00
16 | Cc1cc(CC(=O)Nc2cc([C@H]3CC[C@@H](OC(=O)[C@@H](N)C(C)C)C3)[nH]n2)on1 (single isomer, unassigned) [Example 468] | 6.60 to 7.00
17 | CCOCc1cc(C(=O)Nc2cc([C@H]3C[C@@H](COC(=O)NC(C)C)C3)[nH]n2)n(C)n1 [Example 624] | ≥ 7.00
18 | COCc1cc(C(=O)Nc2cc(-c3csc4cncnc34)[nH]n2)n(C)n1 [Example 242] | 4.00 to 6.00
19 | Cc1cc(CC(=O)Nc2cc([C@H]3CC[C@@H](Oc4cncnc4)C3)[nH]n2)on1 (single isomer, unassigned) [Example 362] | 4.00 to 6.00
20 | Cc1cc(CC(=O)Nc2cc([C@@H]3C[C@@H]3COC(=O)NC(C)C)[nH]n2)on1 (single isomer, unassigned) [Example 136] | 4.00 to 6.00
21 | COCc1cc2c(Nc3cc([C@@H]4C[C@H](OC(=O)N5[C@@H](C)CC[C@@H]5C)CO4)[nH]n3)nccn2n1 (single isomer, unassigned) [Example 580] | ≥ 7.00
22 | CC(C)NC(=O)O[C@H]1CC[C@@H](c2cc(NC=O)n[nH]2)C1 (single isomer, unassigned) [Example 441] | 6.00 to 6.60
23 | C[C@H](NC(=O)O[C@H]1CO[C@@H](c2cc(NC(=O)c3cc(OCC(F)F)nn3C)n[nH]2)C1)C1CC1 [Example 916] | ≥ 7.00
24 | Cc1cc(CC(=O)Nc2cc(C3CCCN3)[nH]n2)on1 (stereo not drawn) [Example 416] | 4.00 to 6.00
25 | c1cncc(OC[C@H]2C[C@H](c3cc(Nc4nccn5nccc45)n[nH]3)C2)c1 [Example 537] | 4.00 to 6.00
26 | COCc1cc2c(Nc3cc([C@H]4C[C@@H](OC(=O)N[C@H]5CC[C@@H](OC)CC5)CO4)[nH]n3)nccn2n1 [Example 693] | 4.00 to 6.00
27 | COCc1cc2c(Nc3cc([C@@H]4CC[C@H](OC(=O)NC(C)C)C4)[nH]n3)nccn2n1 (single isomer, unassigned) [Example 481] | ≥ 7.00

Row | SMILES | pIC50
28 | COCc1cc(C(=O)Nc2cc([C@@H]3CC[C@H](Oc4nnccc4-c4ccccc4)C3)[nH]n2)n(C)n1 (single isomer, unassigned) [Example 475] | ≥ 7.00
29 | Cn1nc(COC(F)(F)F)cc1C(=O)Nc1cc([C@H]2C[C@@H](OC(=O)NC34CC(C3)C4)CO2)[nH]n1 [Example 750] | ≥ 7.00
30 | CC(C)NC(=O)O[C@H]1CO[C@@H](c2cc(Nc3nccc4nccn34)n[nH]2)C1 [Example 649] | ≥ 7.00
31 | COCc1cc2c(Nc3cc([C@@H]4C[C@H](Oc5nnccc5C(C)C)CO4)[nH]n3)nccn2n1 [Example 497] | ≥ 7.00
32 | COCc1cc(C(=O)Nc2cc([C@H]3CC[C@@H](c4ccc(C)nn4)C3)[nH]n2)n(C)n1 (single isomer, unassigned) [Example 572] | 4.00 to 6.00
33 | Cc1cc(CC(=O)Nc2cc([C@H]3CC[C@H](N(C)C(=O)NC(C)C)C3)[nH]n2)on1 (single isomer, unassigned) [Example 141] | 4.00 to 6.00
34 | CO[C@H](c1cc(C(=O)Nc2cc([C@H]3C[C@@H](OC(=O)NC4(C)CC4)CO3)[nH]n2)n(C)n1)C(F)(F)F (single isomer, unassigned) [Example 889] | 6.60 to 7.00
35 | COCc1cc2c(Nc3cc([C@H]4C[C@@H](COC(=O)N5[C@@H](C)CC[C@@H]5C)C4)[nH]n3)nccn2n1 [Example 621] | ≥ 7.00
36 | Cc1cc(CC(=O)Nc2cc(N3CC[C@H](COC(=O)NC4(C)CC4)C3)[nH]n2)on1 [Example 51] | 4.00 to 6.00
37 | CCC1(NC(=O)O[C@H]2CO[C@@H](c3cc(Nc4nccn5nc(COC)cc45)n[nH]3)C2)CC1 [Example 705] | ≥ 7.00
38 | COCc1cc(C(=O)Nc2cc([C@H]3C[C@]4(CN(CC(C)C)C(=O)N4)C3)[nH]n2)n(C)n1 [Example 515] | 4.00 to 6.00
39 | COCc1cc2c(Nc3cc([C@@H]4C[C@H](OC(=O)NC5(C(F)(F)F)CC5)CO4)[nH]n3)nccn2n1 [Example 764] | ≥ 7.00
40 | Cc1cc(CC(=O)Nc2cc([C@H]3C[C@@H]4CC[C@H]3C4)[nH]n2)on1 (racemic) [Example 49] | 4.00 to 6.00
41 | Cc1cc(CC(=O)Nc2cc([C@@H]3CC[C@H](OC(=O)[C@@H](N)C(C)C)C3)[nH]n2)on1 (single isomer, unassigned) [Example 469] | 6.00 to 6.60
42 | COCc1cc(C(=O)Nc2cc([C@@H]3CC[C@H](Oc4c(C)ccnc4C)C3)[nH]n2)n(C)n1 (single isomer, unassigned) [Example 478] | 4.00 to 6.00
43 | Cc1cc2c(c(Nc3cc(C4CCCC4)[nH]n3)n1)C(=O)NC2=O [Example 792] | 4.00 to 6.00
44 | CC(C)NC(=O)O[C@@H]1CO[C@H](c2cc(Nc3nccc4nccn34)n[nH]2)C1 [Example 648] | ≥ 7.00
45 | Cc1nc(Nc2cc(C3CCCC3)[nH]n2)c2sccc2n1 [Example 839] | 4.00 to 6.00
46 | COCc1cc(C(=O)Nc2cc([C@H]3C[C@@H](Oc4cnccc4C4CC4)CO3)[nH]n2)n(C)n1 (single isomer, unassigned) [Example 539] | 6.00 to 6.60
47 | Cc1cc(CC(=O)Nc2cc([C@@H]3C[C@H](OC(=O)NC(C)C)CO3)[nH]n2)on1 (single isomer, unassigned) [Example 345] | 6.60 to 7.00
48 | COCc1nc2ccnc(Nc3cc([C@H]4C[C@@H](OC(=O)NC5(C)COC5)CO4)[nH]n3)c2s1 [Example 696] | ≥ 7.00
49 | COCc1cc2c(Nc3cc([C@H]4C[C@@H](OC(=O)NC56CCC(CC5)CC6)CO4)[nH]n3)nccn2n1 [Example 684] | ≥ 7.00
50 | COCc1cc(C(=O)Nc2cc([C@@H]3CC[C@H](c4cc(C(C)C)ncn4)C3)[nH]n2)n(C)n1 (single isomer, unassigned) [Example 602] | 4.00 to 6.00
51 | Cc1cc(CC(=O)Nc2cc([C@@H]3CC[C@H](NC(=O)[C@@H](O)C(C)C)C3)[nH]n2)on1 (single isomer, unassigned) [Example 483] | 6.00 to 6.60
52 | CCOC(=O)c1cc2c(Nc3cc([C@H]4CC[C@@H](OC(=O)NC(C)C)C4)[nH]n3)nc(C)cn2n1 (single isomer, unassigned) [Example 462] | ≥ 7.00
53 | COCc1cc(C(=O)Nc2cc([C@@H]3CC[C@H](Oc4nncc5cnccc45)C3)[nH]n2)n(C)n1 (single isomer, unassigned) [Example 535] | 6.00 to 6.60

test system: CDK2-independent (SKOV3, COV504, COV644) versus CDK2-dependent (COV318, OVCAR3, HCC1569) cell lines; assay: Cell proliferation selectivity assay (CyQUANT Direct Cell Proliferation Assay); assay type: cell-based; conditions: mean of IC50 ratios between each CDK2-independent versus CDK2-dependent cell line; 120 hours incubation
Protocol: Compounds described herein were also tested in cell proliferation selectivity assays. OVCAR3, HCC1569, and SKOV3 cell lines were obtained from ATCC and cultured as recommended by supplier. COV318, COV504, and COV644 cell lines were obtained from Sigma-Aldrich and were cultured as recommended by supplier. The genetic background and dependency of each cell line was determined using publicly available databases: cBioPortal and DepMap. […] All six cell lines are CDK1-dependent given that CDK1 is an essential gene. Proliferation assay was carried out by seeding cells into 384-well plates at predetermined density (ranging from 150 to 1500 cells per well) in corresponding culture media, followed by brief centrifugation at 1000×g, and culturing cells for 24 hours at 37° C., 5% CO2. The following day, compounds were serially diluted (1l-point, 3-fold dilution scheme with 20 μM as top concentration) and dispensed directly onto cells using Echo 555 acoustic liquid handler (Labcyte). The cells were incubated with the compounds at 37° C., 5% CO2 for 120 hours. Relative number of viable cells in each well was determined using CyQUANT Direct Cell Proliferation Assay Kit (Invitrogen) per manufacturers protocol. The plates were read on EnVision 2105 multimode plate reader (Perkin Elmer) using FITC filter set. Dose response curve fitting and IC50 calculation was done using Genedata Screener software. Proliferation selectivity (i.e. selectivity index) for individual compound was derived as a mean of its IC50 ratios between each CDK2-independent versus CDK2-dependent cell line.

Row | SMILES | Proliferation selectivity Index
54 | COCc1cc2c(Nc3cc([C@H]4C[C@@H](OC(=O)N[C@@H](C)CC(F)(F)F)CO4)[nH]n3)nccn2n1 (single isomer, unassigned) [Example I-33] | 17.57
